Measured values taken from patent US20090203689A1, “ABCA-1 ELEVATING COMPOUNDS AND METHODS” (priority 2008, published 2009).

System: ABCA-1
Assay: Measurement of ABCA-1 protein expression (western blot) in liver of treated ZDF rats
Type: in vivo, ZDF (Zucker diabetic fatty) rats
Conditions: treated at 0, 2 and 4 hrs, western blot quantitated by densitometry, normalized to time-point vehicle controls, time-course (FIG. 2)
Protocol: FIG. 2 illustrates the time-course of the effect of treatment on hepatic ABCA1 protein expression in ZDF rats. Rats were treated with a test compound of Formula I at 0, 2 and 4 hrs. […] ABCA1 protein expression was measured by western blot and quantitated by densitometry, Time-point vehicle controls were used to normalize ABCA1 expression at each time-point.
Cellular ABCA-1 protein expression in cells or tissues were quantitated from homogenates prepared from tissue or cells homogenized in a lysis buffer containing protease inhibitors. Lysate proteins were separated by SDS-PAGE and western blotted for ABCA11 and a housekeeping protein. ABCA-1 was detected with a mouse monoclonal antibody that cross-reacts with human, rat and mouse. β-Actin (or other commonly used normalization proteins) were detected with the appropriate commercial antibody. Using the described assay, the effect of treatment on hepatic ABCA1 protein expression in ZDF rats was determined. Rats were treated with a test compound of Formula I at 0, 2 and 4 hrs. […] Time-point vehicle controls were used to normalize ABCA1 expression at each time-point. The test compound of Formula I used in the experiments of FIG. 2 was 2-{6-[((1R,2R)-2-hydroxycyclopentyl)amino]purin-9-yl}(4S,5S,2R,3R)-5-[(2-fluorophenylthio)methyl]oxolane-3,4-diol.

O[C@@H]1[C@H](O)[C@@H](CSc2ccccc2F)O[C@H]1n1cnc2c(N[C@@H]3CCC[C@H]3O)ncnc21 [2-{6-[((1R,2R)-2-hydroxycyclopentyl)amino]purin-9-yl}(4S,5S,2R,3R)-5-[(2-fluorophenylthio)methyl]oxolane-3,4-diol]
hepatic ABCA1 protein expression: increases ABCA-1 protein expression with time
